The values below come from publication PMC9252067 (Cell chemical biology, 2021).

In one assay the test system is M. tuberculosis H37Rv. The following applies: for EC50: M. tuberculosis growth, 1 week incubation, mean ± SD (n = 3) for JCP276, BMB034, BMB038, others single dose-response experiment (n = 1).
Assay [1] deals with BMB034-labeled proteins (serine hydrolases) of M. tuberculosis H37Rv. The experiment in a line: Competitive ABPP in live cells with BMB034 probe, gel-based. The following applies: pre-treatment of cultures 1 h; 1 μM BMB034 labeling; JCP276 at 1 or 10 μM.

Take `C#Cc1ccc(NC(=O)Nc2ccc3c(Cl)c(OCCCBr)oc(=O)c3c2)cc1` [BMB038, 1-(3-(3-bromopropoxy)-4-chloro-1-oxo-1H-isochromen-7-yl)-3-(4-ethynylphenyl)urea]: the midpoint of the response with M. tuberculosis H37Rv, the EC50, lay at 36 ± 11 µM.

`C#CCCOc1oc(=O)c2cc(NC(=O)Nc3ccccc3)ccc2c1Cl` [BMB034, 1-(3-(but-3-yn-1-yloxy)-4-chloro-1-oxo-1H-isochromen-7-yl)-3-phenylurea]: the EC50 (usually the concentration at which the effect is half-maximal) in the assay on M. tuberculosis H37Rv was found to be 8.7 ± 1.1 µM.

On to `O=c1oc(Cl)c(Cl)c2ccccc12` [DCI, 3,4-dichloroisocoumarin], for which the “competition with BMB034 labeling” value in assay [1] is given as “did not compete”. Moreover, the “inhibition of M. tuberculosis growth” value in the assay with M. tuberculosis H37Rv (negative control compound) is “does not inhibit M. tuberculosis growth”.
